{
  "source": "paper PMC7822874",
  "about": "“Chemoprotective antimalarials identified through quantitative high-throughput screening of Plasmodium blood and liver stage parasites” (Scientific Reports, 2021)",
  "data": [
    {"system": "Plasmodium falciparum Dd2 asexual blood stage parasites", "experiment": "microbe, parasite or virus in culture", "parameters": "species or system Plasmodium falciparum Dd2 in human erythrocytes; single determination (one 11-point concentration-response curve)", "settings": "Plasmodium falciparum, DD2, Erythrocyte, 72 h; read-out: AC50", "units": {"AC50": "µM"}, "values": [
      {"molecule": "C=CCOC(=O)Nc1nc2c(s1)C[C@@H]1[C@](C)(CO)[C@H](O)CC[C@@]1(C)[C@@H]2CC(=O)NC1CCCCC1", "note": "[NCGC00395650-01]", "AC50": 3.76},
      {"molecule": "O=C(Nc1ccc2n(c1=O)C[C@H]1C[C@@H]2CN(Cc2ccc(F)cc2)C1)c1cccs1", "note": "[NCGC00395674-01]", "AC50": 15.3},
      {"molecule": "CC1=C[C@@H](CN2CCN(c3ncccn3)CC2)[C@H](C(C)C)C[C@H]1Cc1nnc(COc2ccc(F)cc2)o1", "note": "[NCGC00395820-01]", "AC50": 0.75},
      {"molecule": "CC(=O)NCCNC[C@@H]1C=C(C)[C@H](Cc2nnc(-c3ccccc3)o2)C[C@H]1C(C)C", "note": "[NCGC00395892-01]", "AC50": 17.2},
      {"molecule": "Fc1ccccc1CN1CCC[C@H]1c1nc(-c2ccnc(N3CCOCC3)c2)no1", "note": "[NCGC00395913-01]", "AC50": 15.3},
      {"molecule": "NC(=O)c1cccc2nc([C@H]3CCN(Cc4ccccn4)C3)[nH]c12", "note": "[NCGC00396190-01]", "AC50": 1.53},
      {"molecule": "COc1ccc(NC(=O)O[C@@H]2CC[C@]3(C)C(CC[C@@H](O)[C@H]3CC(=O)NCc3ccccc3OC)[C@]2(C)CO)cc1", "note": "(stereo partly drawn) [NCGC00398535-01]", "AC50": 6.68},
      {"molecule": "COC(=O)[C@H](Cc1ccc(OC)cc1)NC(=O)[C@H]1CN(C(=O)c2ccc(N(C)C)cc2)CCN1C(=O)C1CCCCC1", "note": "[NCGC00398660-01]", "AC50": 0.668},
      {"molecule": "COC(=O)[C@H](Cc1ccc(OC)cc1)NC(=O)[C@H]1CN(C(=O)c2ccc(N(C)C)cc2)CCN1C(=O)c1cccs1", "note": "[NCGC00398661-01]", "AC50": 0.188},
      {"molecule": "C#C[C@H]1C[N@@]2CC[C@H]1C[C@@H]2CNCc1ccc(F)c(F)c1", "note": "[NCGC00399053-01]", "AC50": 13.7},
      {"molecule": "Cn1nc(C2CCCCC2)cc1[C@H]1CN2CC[C@H]1C[C@@H]2CNC(=O)c1cccs1", "note": "[NCGC00399662-01]", "AC50": 13.7},
      {"molecule": "Cn1nc(C2CCCCC2)cc1[C@H]1CN2CC[C@H]1C[C@@H]2CNC(=O)COc1ccccc1", "note": "[NCGC00399666-01]", "AC50": 15},
      {"molecule": "CC(C)NC(=O)OC[C@H]1C[C@@H]2CCN1C[C@@H]2c1cc(-c2ccc(F)cc2)nn1C", "note": "[NCGC00399718-01]", "AC50": 13.7},
      {"molecule": "COc1ccc(-c2cc([C@H]3CN4CC[C@H]3C[C@@H]4CNC(=O)NC3CCCCC3)n(C)n2)cc1", "note": "[NCGC00399776-01]", "AC50": 1.88},
      {"molecule": "COc1ccc([S+](=O)([O-])NC[C@H]2C[C@@H]3CC[N@]2C[C@@H]3CN(C)Cc2ccccc2)cc1", "note": "[NCGC00400093-01]", "AC50": 4.73},
      {"molecule": "CCC(CC)c1cc([C@H]2CN3CC[C@H]2C[C@@H]3CNC(=O)c2ccc(C)cc2)nc(-c2ccncc2)n1", "note": "[NCGC00400216-01]", "AC50": 10.6},
      {"molecule": "CCC(CC)c1cc([C@H]2CN3CC[C@H]2C[C@@H]3CNC(=O)c2ccccc2)nc(-c2ccncc2)n1", "note": "[NCGC00400223-01]", "AC50": 10.6},
      {"molecule": "CCC(CC)c1cc([C@H]2CN3CC[C@H]2C[C@@H]3CNC(=O)NCc2ccccc2)nc(-c2ccncc2)n1", "note": "[NCGC00400244-01]", "AC50": 4.22},
      {"molecule": "O=C(C[C@@H]1CCNC[C@@H]1Cc1cc(CSc2ccccc2)on1)N1CCN(c2ccccc2)CC1", "note": "[NCGC00400854-01]", "AC50": 8.41},
      {"molecule": "Oc1ccccc1CN[C@H]1[C@H](O)[C@@H](N2CCC(Cc3ccccc3)CC2)[C@@H]2OC[C@H]1O2", "note": "[NCGC00400924-01]", "AC50": 3.44},
      {"molecule": "COc1ccc(CNC[C@H]2O[C@H](Cc3cc(-c4ccc(OC)cc4)on3)CC[C@@H]2O)cc1", "note": "[NCGC00401026-01]", "AC50": 10.6},
      {"molecule": "COc1ccc(CNC[C@H]2O[C@H](Cc3cc(-c4ccccc4)on3)CC[C@@H]2O)cc1", "note": "[NCGC00401044-01]", "AC50": 3.85},
      {"molecule": "CN(Cc1ccccc1)C(=O)[C@H]1O[C@H](CCN2CCN(c3ccc(F)cc3)CC2)CC[C@@H]1O", "note": "[NCGC00401502-01]", "AC50": 5.96},
      {"molecule": "Cc1nc(-c2ccco2)cc([C@H]2CN3CC[C@H]2C[C@@H]3CNCc2ccccc2)n1", "note": "[NCGC00401513-01]", "AC50": 4.33},
      {"molecule": "COc1ccc2nc(C[C@@H]3C[C@@H](C(C)C)[C@H](CNCc4cccnc4)C=C3C)[nH]c2n1", "note": "[NCGC00401578-01]", "AC50": 19.3},
      {"molecule": "COc1ccc(C(=O)N[C@@H]2CN(Cc3cccc(OC)c3)CCC[C@H]2O)cc1", "note": "[NCGC00401653-01]", "AC50": 10.9},
      {"molecule": "COC(=O)[C@@H]1Cc2ncn(Cc3ccc(OC)cc3)c2CN1[S+](=O)([O-])Cc1ccccc1", "note": "[NCGC00401681-01]", "AC50": 15},
      {"molecule": "COC(=O)[C@@H]1Cc2ncn(Cc3ccc(OC)cc3)c2CN1[S+](C)(=O)[O-]", "note": "[NCGC00401682-01]", "AC50": 19.3},
      {"molecule": "CC1=C[C@@H](CNCCN(C)C)[C@H](C(C)C)C[C@H]1Cc1nnc(C(C)(C)C)o1", "note": "[NCGC00401821-01]", "AC50": 15.3},
      {"molecule": "O=C1CO[C@H]2CCN(Cc3ccc4c(c3)CCO4)CC[C@@H]2N1Cc1ccccc1", "note": "[NCGC00409937-01]", "AC50": 17.2},
      {"molecule": "COc1ccc2cc1Nc1ccc(cc1)C[C@H](NCc1cccc(C(=O)O)c1)C(=O)N(C)[C@H](C(=O)Nc1ccccc1OCc1ccccc1)C2", "note": "[NCGC00410264-01]", "AC50": 4.73},
      {"molecule": "COc1ccc2cc1Nc1ccc(cc1)C[C@H](NC(=O)c1cc3ccccc3n1C)C(=O)N(C)[C@H](C(=O)NCCC(C)C)C2", "note": "[NCGC00410275-01]", "AC50": 10.6},
      {"molecule": "COc1ccc2cc1Nc1ccc(cc1)C[C@H](NCc1ccc(C)o1)C(=O)N(C)[C@@H](C(=O)NCc1ccccc1)C2", "note": "[NCGC00410280-01]", "AC50": 5.31},
      {"molecule": "COc1ccc2cc1Nc1ccc(cc1)C[C@H](NC(=O)c1cccnc1)C(=O)N(C)[C@@H](C(=O)NCCOc1ccccc1)C2", "note": "[NCGC00410281-01]", "AC50": 4.22},
      {"molecule": "COc1ccc2cc1Nc1ccc(cc1)C[C@H](NC(=O)Cc1cccc(Cl)c1)C(=O)N(C)[C@H](C(=O)NCCOc1ccccc1)C2", "note": "[NCGC00410283-01]", "AC50": 7.5},
      {"molecule": "COc1ccc2cc1Nc1ccc(cc1)C[C@H](NCc1ccc(C)o1)C(=O)N(C)[C@H](C(=O)NCCC(C)C)C2", "note": "[NCGC00410286-01]", "AC50": 5.96},
      {"molecule": "COc1ccc2cc1Nc1ccc(cc1)C[C@H](NCc1ccc3c(c1)CCO3)C(=O)N(C)[C@H](C(=O)NCCC(C)C)C2", "note": "[NCGC00410296-01]", "AC50": 3.35},
      {"molecule": "COc1ccc2cc1Nc1ccc(cc1)C[C@H](NC(=O)c1ccc(Oc3ccccc3)cc1)C(=O)N(C)[C@@H](C(=O)Nc1ccccc1)C2", "note": "[NCGC00410310-01]", "AC50": 2.11},
      {"molecule": "c1ccc(Nc2cc3c(cn2)CN(Cc2ccsc2)CCN3)cc1", "note": "[NCGC00411091-01]", "AC50": 13.7},
      {"molecule": "CN(C)c1cccc(Nc2cc3c(cn2)CN(Cc2ccccc2)CCN3)c1", "note": "[NCGC00411230-01]", "AC50": 13.7},
      {"molecule": "Cc1noc2c(NC3CCN(C)CC3)cc(-c3cccc(C(F)(F)F)c3)nc12", "note": "[NCGC00411487-01]", "AC50": 13.7},
      {"molecule": "Oc1ccccc1-c1cc(C2=CCOCC2)c2cncn2c1", "note": "[NCGC00412161-01]", "AC50": 9.68},
      {"molecule": "COc1ccc(-c2cc(-c3ccc(N4CCOCC4)nc3)cn3cncc23)cc1", "note": "[NCGC00412184-01]", "AC50": 7.69},
      {"molecule": "COc1ccc(-c2cc(-c3cccc(OC)c3OC)cn3cncc23)cc1", "note": "[NCGC00412191-01]", "AC50": 6.85},
      {"molecule": "COc1ccc(-c2cc(-c3cccc(NC(C)=O)c3)cn3cncc23)cn1", "note": "[NCGC00412201-01]", "AC50": 21.7},
      {"molecule": "COc1ccc(NC(=O)Cc2c[nH]c3ncc(-c4cnn(C)c4)cc23)cn1", "note": "[NCGC00412250-01]", "AC50": 12.2},
      {"molecule": "C[S+](=O)([O-])c1cccc(-c2cnc3[nH]cc(CC(=O)NCc4cccnc4)c3c2)c1", "note": "[NCGC00412364-01]", "AC50": 9.68},
      {"molecule": "COc1ccc(-c2cnc3[nH]cc(CC(=O)NCc4cccnc4)c3c2)cn1", "note": "[NCGC00412433-01]", "AC50": 6.85},
      {"molecule": "COc1ccc(-c2cnc3[nH]cc(CC(=O)NCc4cccnc4)c3c2)cc1OC", "note": "[NCGC00412448-01]", "AC50": 1.53},
      {"molecule": "COc1ccccc1Nc1cnc2ccc(-c3ccc(F)cc3)nn12", "note": "[NCGC00412490-01]", "AC50": 6.85},
      {"molecule": "COc1ccc(-c2ccc3ncc(Nc4cccc(C(F)(F)F)c4)n3n2)cn1", "note": "[NCGC00412495-01]", "AC50": 12.2}
    ]}
  ]
}
